In patent publication US20230330040A1, “IMMUNOLOGICAL EFFECTS OF METABOLITES” (The Regents of the University of California, priority 2020, published 2023):
Entries after “also recorded” stand apart in the source; their conditions may differ.

Columns and labels:
[1] = tested on: C. elegans var. Bristol (N2); assay: C. elegans lifespan analysis; type: in vivo; details: for lifespan extension versus Control: lifelong exposure; for lifespan versus spermidine treated worms / lifespan extension versus untreated control worms: lifelong treatment; for lifespan extension versus untreated control worms: 0.2 mM spermidine, 0.5 mM 1-MNA, 0.01 and 0.1 mM PEA, 0.01 mM OEA, b30 prints 100 μM spermidine, 100 μM 1-MNA
Method: C. elegans var. Bristol (N2), was used as the wild-type strain. Strains were maintained and lifespan assays were performed at 20° C. Twenty-four hours after seeding Escherichia coli (OP50) bacteria on standard NGM plates, the bacteria were killed by 4 min exposure to UV irradiation using a Stratalinker UV crosslinker (Stratagene, Model 2400). The following concentrations of compounds were used: 0.2 mM spermidine, 0.5 mM 1-MNA, 0.01 and 0.1 mM PEA, and 0.01 mM OEA. Spermidine and MNA were diluted into 100 μl sterilized water and applied to the top of the agar medium (3 ml NGM plates). Plates were then gently swirled to allow compounds to spread to the entire NGM surface. Identical solutions of compound-free water were used for the control plates. Plates were then allowed to dry overnight. The procedure was repeated each time worms were transferred to fresh plates (every 2-4 days). PEA and OEA were added to cooled agar, prior to solidification; for the combination, all compounds were added to cooled agar and plates stored at 4° C. Synchronous worm populations were generated by hypochlorite treatment of gravid adults and life span assays were performed beginning at the L4 stage (Day 0). Seven to eight plates of 15 worms each were exposed to the indicated compounds. Animals were transferred to fresh plates every 2 days for the first week and then 3-4 days thereafter. Worms were examined for touch-provoked movement and pharyngeal pumping, until death. Worms that died due to desiccation from crawling on the edge of the plates, were censored. Kaplan-Meier survival curves were created to evaluate C. elegans lifespan. The R package survival (3.1.8) was used to fit the Cox proportional hazards regression model to evaluate differences of survivals between each treatment group versus control.

[2] = tested on: total cyclooxygenase (COX) activity; assay: COX activity assay in LPS stimulated THP-1 macrophage; type: cell-based, human; details: spermidine 100 μM, 1-MNA 100 μM, PEA 10 nM, OEA 10 μM, Combo = all four
Method: For certain assays requiring high cellular concentrations beyond what was feasible to isolate from human volunteers, THP-1 monocytes (ATCC, TIB-202) were cultured in RPMI 1640, 10% FBS, lx PSG and differentiated into M0 macrophage using 100 nM phorbol 12-myristate-13-acetate (PMA) for 2 days followed by incubation with clean RPMI, 10% FBS, 1×PSG for 1 day.
The effect of treatment with participant plasma and individual metabolites on the total cellular COX activity of THP-1 macrophage was measured using a commercially available kit (Cayman Chemical, 760151). In order to induce COX-2 expression, THP-1 macrophage were incubated with 10 ng/mL of lipopolysaccharide (LPS) (Sigma, LPS25) in RPMI, 1×PSG along with 20% participant plasma, or in RMPI, 10% FBS, 1×PSG either alone as a positive control or with isolated metabolites overnight (approximately 18 hrs) before measuring total COX activity from cell lysates. A negative control of macrophage in RPMI, 10% FBS, 1×PSG without LPS was also performed. (Inter CV: 5.4, Intra CV: 12.3)

total COX activity versus vehicle treated positive control [2]	Structure (SMILES)	lifespan extension versus Control ([1]; PEA 10 μM (lower concentration))	lifespan extension versus Control ([1]; PEA 100 μM)	lifespan versus spermidine treated worms [1]	lifespan extension versus untreated control worms [1]
potent inhibitor of COX activity	CCCCCCCCCCCCCCCC(=O)NCCO [PEA, palmitoylethanolamide]	most effective at increasing lifespan; also recorded: Significant lifespan extension	Significant lifespan extension	significantly increased lifespan	significantly increased lifespan extension
–	C[n+]1cccc(C(N)=O)c1 [1-MNA, 1-methylnicotinamide]	–	–	–	Significant lifespan extension was observed for all metabolites except 1-MNA
–	NCCCCNCCCN [spermidine]	–	–	–	significantly increased lifespan extension; also recorded: Significant lifespan extension
–	CCCCCCCC/C=C\CCCCCCCC(=O)NCCO [OEA, oleoylethanolamide]	–	–	significantly increased lifespan	significantly increased lifespan extension; also recorded: Significant lifespan extension
